# Assays:
# [1] = biological target: Sodium-dependent noradrenaline transporter (Homo sapiens, UniProt P23975); assay: DRUGMATRIX: Norepinephrine Transporter radioligand binding (ligand: [125I] RTI-55); format: cell membranes, MDCK, Membrane; details: Not Active = under 50% inhibition at 10 µM
# Vasopressin V1a receptor = Vasopressin V1a receptor (Homo sapiens, UniProt P37288); format: cell membranes, Membrane; details: hek293; also: in other assays of this panel Not Active means under 50% inhibition at 10 µM
# [2] = DRUGMATRIX: Imidazoline I2, Central radioligand binding (ligand: [3H] Idazoxan); format: cell membranes, Rattus norvegicus, Wistar, Cerebral cortex, Membrane; details: Not Active = under 50% inhibition at 10 µM
# [3] = DRUGMATRIX: Phorbol Ester radioligand binding (ligand: [3H] PDBu); format: cell membranes, Mus musculus, ICR, Brain, Membrane; details: Not Active = under 50% inhibition at 10 µM
# Adenosine receptor A3 = biological target: T1, Adenosine receptor A3 (Homo sapiens, UniProt P0DMS8); format: cell membranes, CHO-K1, Membrane;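 also: radioligand binding assay with AB-MECA serving as the labeled ligand; in other assays of this panel Not Active means under 50% inhibition at 10 µM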
# T1 sequence (P0DMS8 whole entry): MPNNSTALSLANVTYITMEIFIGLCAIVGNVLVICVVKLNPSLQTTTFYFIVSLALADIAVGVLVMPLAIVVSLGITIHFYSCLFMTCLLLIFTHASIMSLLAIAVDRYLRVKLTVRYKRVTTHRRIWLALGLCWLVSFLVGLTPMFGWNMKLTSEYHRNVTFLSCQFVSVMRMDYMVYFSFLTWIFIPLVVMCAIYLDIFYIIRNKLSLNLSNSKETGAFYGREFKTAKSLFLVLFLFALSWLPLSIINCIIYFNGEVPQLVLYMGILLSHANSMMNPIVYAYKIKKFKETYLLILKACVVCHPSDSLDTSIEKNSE
# Cytochrome P450 3A4 = Cytochrome P450 3A4 (Homo sapiens, UniProt P08684); details: bti-tn-5b1-4; also: in other assays of this panel Not Active means under 50% inhibition at 10 µM
# [4] = biological target: Voltage-gated inwardly rectifying potassium channel KCNH2 (Homo sapiens, UniProt Q12809); details: hek293; also: in other assays of this panel Not Active means under 50% inhibition at 10 µM
# Sequence of Voltage-gated inwardly rectifying potassium channel KCNH2 (Q12809 whole entry): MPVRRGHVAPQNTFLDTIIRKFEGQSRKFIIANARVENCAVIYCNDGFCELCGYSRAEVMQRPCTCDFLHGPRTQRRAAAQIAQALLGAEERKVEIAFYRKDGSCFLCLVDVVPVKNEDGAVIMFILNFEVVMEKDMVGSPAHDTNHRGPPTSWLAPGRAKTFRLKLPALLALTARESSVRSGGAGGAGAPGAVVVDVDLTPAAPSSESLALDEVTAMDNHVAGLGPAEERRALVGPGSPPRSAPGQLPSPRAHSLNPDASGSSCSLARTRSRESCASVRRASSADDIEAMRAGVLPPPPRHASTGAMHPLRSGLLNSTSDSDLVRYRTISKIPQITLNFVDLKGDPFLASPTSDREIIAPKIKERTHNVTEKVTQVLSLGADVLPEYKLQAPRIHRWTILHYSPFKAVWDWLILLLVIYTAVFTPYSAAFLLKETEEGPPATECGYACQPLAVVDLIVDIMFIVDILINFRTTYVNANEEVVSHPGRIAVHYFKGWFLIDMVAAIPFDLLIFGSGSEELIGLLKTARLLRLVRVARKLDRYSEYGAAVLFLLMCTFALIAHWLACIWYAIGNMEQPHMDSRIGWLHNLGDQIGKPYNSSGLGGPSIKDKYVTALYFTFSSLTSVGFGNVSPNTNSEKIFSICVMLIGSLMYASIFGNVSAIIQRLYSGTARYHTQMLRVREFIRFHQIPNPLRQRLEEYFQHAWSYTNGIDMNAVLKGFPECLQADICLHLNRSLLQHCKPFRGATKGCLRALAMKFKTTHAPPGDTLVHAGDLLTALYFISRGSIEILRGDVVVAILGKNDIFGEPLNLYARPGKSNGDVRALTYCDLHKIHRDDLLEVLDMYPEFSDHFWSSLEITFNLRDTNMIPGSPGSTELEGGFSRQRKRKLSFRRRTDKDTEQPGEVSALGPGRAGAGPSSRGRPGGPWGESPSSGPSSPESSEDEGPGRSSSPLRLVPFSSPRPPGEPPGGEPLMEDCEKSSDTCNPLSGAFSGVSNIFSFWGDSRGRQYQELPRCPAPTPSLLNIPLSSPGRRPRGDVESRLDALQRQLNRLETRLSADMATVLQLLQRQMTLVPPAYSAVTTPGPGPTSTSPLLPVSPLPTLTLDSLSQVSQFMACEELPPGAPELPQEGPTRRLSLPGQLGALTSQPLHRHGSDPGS
# Sequence of Sodium-dependent noradrenaline transporter (P23975 whole entry): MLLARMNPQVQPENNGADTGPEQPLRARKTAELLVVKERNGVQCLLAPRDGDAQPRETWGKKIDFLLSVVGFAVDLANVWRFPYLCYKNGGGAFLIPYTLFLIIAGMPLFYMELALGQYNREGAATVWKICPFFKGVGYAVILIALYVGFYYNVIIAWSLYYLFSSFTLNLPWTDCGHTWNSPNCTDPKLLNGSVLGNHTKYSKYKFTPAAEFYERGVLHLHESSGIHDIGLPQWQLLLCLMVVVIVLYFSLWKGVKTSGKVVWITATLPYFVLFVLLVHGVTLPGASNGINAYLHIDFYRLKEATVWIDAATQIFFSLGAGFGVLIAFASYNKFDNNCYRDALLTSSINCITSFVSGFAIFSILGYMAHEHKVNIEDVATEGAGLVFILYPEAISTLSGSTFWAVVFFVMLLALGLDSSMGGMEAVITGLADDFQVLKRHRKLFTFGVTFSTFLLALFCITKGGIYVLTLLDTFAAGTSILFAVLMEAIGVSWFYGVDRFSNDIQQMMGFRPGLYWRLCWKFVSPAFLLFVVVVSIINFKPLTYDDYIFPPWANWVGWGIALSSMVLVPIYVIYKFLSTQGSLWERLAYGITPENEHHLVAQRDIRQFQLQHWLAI
# Sequence of Vasopressin V1a receptor (P37288 whole entry): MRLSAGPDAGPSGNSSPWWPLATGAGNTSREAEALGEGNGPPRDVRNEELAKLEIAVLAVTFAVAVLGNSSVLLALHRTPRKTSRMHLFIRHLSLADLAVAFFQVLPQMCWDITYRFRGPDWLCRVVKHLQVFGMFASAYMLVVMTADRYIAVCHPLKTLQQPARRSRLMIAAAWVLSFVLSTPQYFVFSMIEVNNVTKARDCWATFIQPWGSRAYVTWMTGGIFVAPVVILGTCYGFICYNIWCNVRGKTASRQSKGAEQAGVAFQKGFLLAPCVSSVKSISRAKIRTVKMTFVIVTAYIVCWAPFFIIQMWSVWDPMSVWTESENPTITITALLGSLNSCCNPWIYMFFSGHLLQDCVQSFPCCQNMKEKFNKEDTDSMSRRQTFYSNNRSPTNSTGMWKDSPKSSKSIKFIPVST
# Sequence of Cytochrome P450 3A4 (P08684 whole entry): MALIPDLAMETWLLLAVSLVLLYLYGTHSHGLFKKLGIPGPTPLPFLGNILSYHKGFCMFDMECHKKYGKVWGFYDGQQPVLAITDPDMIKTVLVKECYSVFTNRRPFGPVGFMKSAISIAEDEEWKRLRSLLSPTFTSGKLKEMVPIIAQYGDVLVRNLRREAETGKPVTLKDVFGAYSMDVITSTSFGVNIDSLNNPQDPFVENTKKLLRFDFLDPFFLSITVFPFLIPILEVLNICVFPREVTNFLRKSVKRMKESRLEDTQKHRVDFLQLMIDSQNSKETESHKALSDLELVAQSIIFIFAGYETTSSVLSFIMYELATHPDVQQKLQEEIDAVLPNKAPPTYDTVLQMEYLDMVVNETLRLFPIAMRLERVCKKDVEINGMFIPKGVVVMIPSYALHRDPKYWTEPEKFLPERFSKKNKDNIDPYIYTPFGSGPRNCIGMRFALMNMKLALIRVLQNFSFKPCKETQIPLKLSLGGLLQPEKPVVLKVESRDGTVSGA
Compound,IC50 ([1]; mdck),IC50 (Vasopressin V1a receptor),IC50 [2],Ki [2],IC50 [3],Ki [3],IC50 (Adenosine receptor A3; read-out: IC50) [µM],Ki (Adenosine receptor A3; read-out: Ki) [µM],IC50 (Cytochrome P450 3A4),Ki (Cytochrome P450 3A4),IC50 [4],Ki [4],IC50 (Adenosine receptor A3; cho-k1),Ki ([1]; mdck),Ki (Vasopressin V1a receptor),Ki (Adenosine receptor A3; cho-k1),IC50 ([1]; read-out: IC50) [µM],Ki ([1]; read-out: Ki) [µM],IC50 ([2]; read-out: IC50) [µM],Ki ([2]; read-out: Ki) [µM]
c1ccc2sc(SSc3nc4ccccc4s3)nc2c1 [BENZOTHIAZYL DISULFIDE],Not Active,Not Active,Not Active,Not Active,Not Active,Not Active,0.347,0.196,Not Active,Not Active,Not Active,Not Active,,,,,,,,
O=C1CN(/N=C/c2ccc([N+](=O)[O-])o2)C(=O)N1 [NITROFURANTOIN],Not Active,Not Active,Not Active,Not Active,Not Active,Not Active,,,Not Active,Not Active,Not Active,Not Active,Not Active,,,,,,,
NCC(CC(=O)O)c1ccc(Cl)cc1 (configuration not stated) [BACLOFEN],Not Active,Not Active,Not Active,Not Active,Not Active,Not Active,,,Not Active,Not Active,Not Active,Not Active,Not Active,,,,,,,
OC[C@H]1O[C@@H]2O[C@H]3[C@H](O)[C@@H](O)[C@@H](O[C@H]4[C@H](O)[C@@H](O)[C@@H](O[C@H]5[C@H](O)[C@@H](O)[C@@H](O[C@H]6[C@H](O)[C@@H](O)[C@@H](O[C@H]7[C@H](O)[C@@H](O)[C@@H](O[C@H]8[C@H](O)[C@@H](O)[C@@H](O[C@H]1[C@H](O)[C@H]2O)O[C@@H]8CO)O[C@@H]7CO)O[C@@H]6CO)O[C@@H]5CO)O[C@@H]4CO)O[C@@H]3CO [BETADEX],Not Active,Not Active,Not Active,Not Active,Not Active,Not Active,,,Not Active,Not Active,Not Active,Not Active,Not Active,,,,,,,
Cl.NC[C@H]1CC[C@H](C(=O)Oc2ccc(CCC(=O)O)cc2)CC1 [CETRAXATE HYDROCHLORIDE],Not Active,Not Active,Not Active,Not Active,Not Active,Not Active,,,Not Active,Not Active,Not Active,Not Active,Not Active,,,,,,,
O=C(NCCN1CCOCC1)c1ccc(Cl)cc1 [MOCLOBEMIDE],Not Active,Not Active,Not Active,Not Active,Not Active,Not Active,,,Not Active,Not Active,Not Active,Not Active,Not Active,,,,,,,
CARBOXYMETHYLCELLULOSE,Not Active,Not Active,Not Active,Not Active,Not Active,Not Active,,,Not Active,Not Active,Not Active,Not Active,Not Active,Not Active,Not Active,Not Active,,,,
C[C@@H]1[C@H](O)[C@@H](C)/C=C/C=C/C=C/C=C/C=C/C=C/C=C/[C@H](O[C@@H]2O[C@H](C)[C@@H](O)[C@H](N)[C@@H]2O)C[C@@H]2O[C@](O)(C[C@@H](O)C[C@@H](O)[C@H](O)CC[C@@H](O)C[C@@H](O)CC(=O)O[C@H]1C)C[C@H](O)[C@H]2C(=O)O [AMPHOTERICIN B],Not Active,Not Active,Not Active,Not Active,Not Active,Not Active,,,Not Active,Not Active,Not Active,Not Active,Not Active,,,,,,,
CCC1(c2ccccc2)C(=O)NC(=O)NC1=O [PHENOBARBITAL],Not Active,Not Active,Not Active,Not Active,Not Active,Not Active,,,Not Active,Not Active,Not Active,Not Active,Not Active,,,,,,,
C=CCN1CC[C@]23c4c5ccc(O)c4O[C@H]2/C(=N/N=C2\CC[C@@]4(O)[C@H]6Cc7ccc(O)c8c7[C@@]4(CCN6CC=C)[C@H]2O8)CC[C@@]3(O)[C@H]1C5 [NALOXONAZINE],Not Active,Not Active,Not Active,Not Active,Not Active,Not Active,,,Not Active,Not Active,Not Active,Not Active,Not Active,,,,,,,
OC[C@H]1O[C@@H]2O[C@H]3[C@H](O)[C@@H](O)[C@@H](O[C@H]4[C@H](O)[C@@H](O)[C@@H](O[C@H]5[C@H](O)[C@@H](O)[C@@H](O[C@H]6[C@H](O)[C@@H](O)[C@@H](O[C@H]7[C@H](O)[C@@H](O)[C@@H](O[C@H]1[C@H](O)[C@H]2O)O[C@@H]7CO)O[C@@H]6CO)O[C@@H]5CO)O[C@@H]4CO)O[C@@H]3CO [ALFADEX],Not Active,Not Active,Not Active,Not Active,Not Active,Not Active,,,Not Active,Not Active,Not Active,Not Active,Not Active,,,,,,,
POVIDONE,Not Active,Not Active,Not Active,Not Active,Not Active,Not Active,,,Not Active,Not Active,Not Active,Not Active,Not Active,Not Active,Not Active,Not Active,,,,
c1ccc2c(c1)Nc1ccccc1S2 [PHENOTHIAZINE],,Not Active,Not Active,Not Active,Not Active,Not Active,25.6,14.5,Not Active,Not Active,Not Active,Not Active,,,,,0.461,0.457,,
CC(N)Cc1c[nH]c2ccc(OCc3cccs3)cc12 (configuration not stated) [BW-723C86],,Not Active,Not Active,Not Active,Not Active,Not Active,,,Not Active,Not Active,Not Active,Not Active,Not Active,,,,3.63,3.6,,
O=C(O)COC(=O)Cc1ccccc1Nc1c(Cl)cccc1Cl [ACECLOFENAC],Not Active,Not Active,Not Active,Not Active,Not Active,Not Active,,,Not Active,Not Active,Not Active,Not Active,Not Active,,,,,,,
COC(=O)Nc1nc2ccc(Sc3ccccc3)cc2[nH]1 [FENBENDAZOLE],Not Active,Not Active,Not Active,Not Active,Not Active,Not Active,,,Not Active,Not Active,Not Active,Not Active,Not Active,,,,,,,
Cc1c(N)nc([C@H](CC(N)=O)NC[C@H](N)C(N)=O)nc1C(=O)N[C@H](C(=O)N[C@H](C)[C@@H](O)[C@H](C)C(=O)N[C@H](C(=O)NCCc1nc(-c2nc(C(=O)NCCC[S+](C)C)cs2)cs1)[C@@H](C)O)[C@@H](O[C@@H]1O[C@@H](CO)[C@@H](O)[C@H](O)[C@@H]1O[C@H]1O[C@H](CO)[C@@H](O)[C@H](OC(N)=O)[C@@H]1O)c1c[nH]cn1.[Br-] [BLEOMYCIN A2],Not Active,Not Active,Not Active,Not Active,Not Active,Not Active,,,Not Active,Not Active,Not Active,Not Active,Not Active,,,,,,,
CC(CN1c2ccccc2Sc2ccccc21)N(C)C (configuration not stated) [PROMETHAZINE],,Not Active,,,Not Active,Not Active,,,Not Active,Not Active,Not Active,Not Active,Not Active,,,,4.24,4.2,1.99,1.33
COc1cc(NC(C)CCCN)c2ncccc2c1 (configuration not stated) [PRIMAQUINE],Not Active,Not Active,Not Active,Not Active,Not Active,Not Active,,,Not Active,Not Active,Not Active,Not Active,Not Active,,,,,,,
CCCCCCNC(=O)n1cc(F)c(=O)[nH]c1=O [CARMOFUR],Not Active,Not Active,Not Active,Not Active,Not Active,Not Active,,,Not Active,Not Active,Not Active,Not Active,Not Active,,,,,,,
Cc1cc(C(C)(C)C)c(O)c(C)c1CC1=NCCN1 [OXYMETAZOLINE],Not Active,Not Active,,,Not Active,Not Active,,,Not Active,Not Active,Not Active,Not Active,Not Active,,,,,,0.027,0.018
